Source: US9493478B2, “Fused ring compound containing furan or salt thereof and pharmaceutical composition comprising same” (YUHAN CORPORATION, priority 2012, dated 2016)

Columns and labels:
Type in all cases: biochemical
[1] = target: PI3Kδ (p110δ/p85α)(h) (Homo sapiens, UniProt O00329); assay: Assay for phosphatidylinositol 3-kinase delta (PI3Kδ) activity, PI3K-HTRF kit; details: TR-FRET; enzyme 0.725 μg/ml, 10 μM PIP2, 10 μM ATP
Method: [The source words this procedure for another target and says it was used here with some conditions changed.] (§1) The compounds of the present invention were assayed for the activity of phosphatidylinositol 3-kinase gamma (PI3Kγ) by using a PI3K enzyme-homogenous time resolved fluorescence (PI3K-HTRF) kit, which is available from Upstate (Millipore Co, Billerica, Mass., USA).
(§2) Three kinds of buffer solutions including a phosphorylation reaction solution (a reaction buffer containing 40 mM MgCl2 which is available from Upstate was diluted 4 times and added with 5 mM DTT), a stop solution (STOP A and B solutions which are available from Upstate were mixed at a ratio of 3:1) and a fluorescence detection solution (Detection solutions A, B and C which are available from Upstate were mixed at a ratio of 1:1:18) were prepared. 1 mM of PIP2 substrate (phosphatidylinositol 4,5 biphosphate; Upstate), PI3Kγ (#14-558; Upstate) enzyme and 10 mM ATP (Sigma Aldrich Co., St. Louis, Mo., USA) were prepared. Each of PI3Kγ, 1 mM PIP2 and 10 mM ATP was diluted to 2.9 μg/ml (final reaction concentration: 1.45 μg/ml), 20 μM (final reaction concentration: 10 μM) and 40 μM (final reaction concentration: 10 μM), respectively. The buffer solution used for dilution and preparation process was the phosphorylation reaction solution. The stop solution was used for the termination of phosphorylation reaction, and the fluorescence detection solution was used for the detection of time-resolved fluorescence signals.
(§3) Each test sample was transferred to a 384 well low flange white flat bottom microplate (#3572, Corning Life Sciences, Lowell, Mass., USA) by using a multi 8-channel (Pipetman Neo multi 8×20, Gilson, Middleton, Wis., USA) to make a final phosphorylation reaction volume of 20 μl per each well. For the negative control, 5 μl of 14.4% DMSO and 10 μl of PIP2 substration solution were used, and 5 μl of 14.4% DMSO and 10 μl of PIP2/PI3Kγ mixed solution were used as the positive control. For the test group, 5 μl of a solution prepared by dissolving the compound obtained in Example in DMSO and 10 μl of PIP2/PI3Kγ mixed solution were used. Before the initiation of the phosphorylation reaction, sample compounds were pretreated with the enzyme for approximately 10 minutes, and then the phosphorylation reaction was induced by adding 5 μl of ATP. Since each of the test compound and ATP takes up 25% of the total volume, and PIP2 and PI3Kγ take up 50% of the total volume during the reaction, each solution was concentrated 4 and 2 times, respectively, before mixing the solutions. Subsequently, the test sample was gently shook for 3 minutes and subjected to a phosphorylation reaction for 90 minutes at room temperature, which was then added with 5 μl of the stop solution to terminate the phosphorylation reaction. In order to induce a time-resolved fluorescence reaction, 5 μl of the fluorescence detection solution was added to the sample. The fluorescence detection solution contains biotin-phosphatidylinositol 3,4,5-triphosphate (PIP3), streptavidin-labeled Allopycocyanin (APC) and europium-labeled Pleckstrin homology domain (the PIP3 binds to PH domain), and the time-resolved fluorescence reaction is induced by a series of reaction of PH domain and PIP3, and biotin and streptavidin. The sample was left to stand for 6 hours at room temperature, and the time-resolved fluorescence resonance energy transfer (TR-FRET) rate was measured (emission wavelength: 665 nm, 620 nm, excitation wavelength: 340 nm) by using a Flexstation3 Micro plate reader (Molecular Devices, USA). TR-FRET Rate and TR-Inhibition Rate were calculated based on Equations 1 and 2 below, and the results are expressed in IC50, which is the concentration of a compound that inhibits 50% of PI3Kγ activity in vitro. TR-FRET Rate=(665 nm emission wavelength/620 nm emission wavelength)×10000 <Equation 1> TR-FRET Inhibition Rate=[(TR-FRET Rate of Sample−TR-FRET Rate of Negative Control)/(TR-FRET Rate of Positive Control−TR-FRET Rate of Negative Control)]×100 <Equation 2> […]

[2] = target: PI3Kγ (p120γ)(h) (Homo sapiens, UniProt P48736); assay: Assay for phosphatidylinositol 3-kinase gamma (PI3Kγ) activity, PI3K-HTRF kit; details: TR-FRET; enzyme 1.45 μg/ml, 10 μM PIP2, 10 μM ATP
Sequence of PI3Kγ (p120γ)(h) (P48736 whole entry): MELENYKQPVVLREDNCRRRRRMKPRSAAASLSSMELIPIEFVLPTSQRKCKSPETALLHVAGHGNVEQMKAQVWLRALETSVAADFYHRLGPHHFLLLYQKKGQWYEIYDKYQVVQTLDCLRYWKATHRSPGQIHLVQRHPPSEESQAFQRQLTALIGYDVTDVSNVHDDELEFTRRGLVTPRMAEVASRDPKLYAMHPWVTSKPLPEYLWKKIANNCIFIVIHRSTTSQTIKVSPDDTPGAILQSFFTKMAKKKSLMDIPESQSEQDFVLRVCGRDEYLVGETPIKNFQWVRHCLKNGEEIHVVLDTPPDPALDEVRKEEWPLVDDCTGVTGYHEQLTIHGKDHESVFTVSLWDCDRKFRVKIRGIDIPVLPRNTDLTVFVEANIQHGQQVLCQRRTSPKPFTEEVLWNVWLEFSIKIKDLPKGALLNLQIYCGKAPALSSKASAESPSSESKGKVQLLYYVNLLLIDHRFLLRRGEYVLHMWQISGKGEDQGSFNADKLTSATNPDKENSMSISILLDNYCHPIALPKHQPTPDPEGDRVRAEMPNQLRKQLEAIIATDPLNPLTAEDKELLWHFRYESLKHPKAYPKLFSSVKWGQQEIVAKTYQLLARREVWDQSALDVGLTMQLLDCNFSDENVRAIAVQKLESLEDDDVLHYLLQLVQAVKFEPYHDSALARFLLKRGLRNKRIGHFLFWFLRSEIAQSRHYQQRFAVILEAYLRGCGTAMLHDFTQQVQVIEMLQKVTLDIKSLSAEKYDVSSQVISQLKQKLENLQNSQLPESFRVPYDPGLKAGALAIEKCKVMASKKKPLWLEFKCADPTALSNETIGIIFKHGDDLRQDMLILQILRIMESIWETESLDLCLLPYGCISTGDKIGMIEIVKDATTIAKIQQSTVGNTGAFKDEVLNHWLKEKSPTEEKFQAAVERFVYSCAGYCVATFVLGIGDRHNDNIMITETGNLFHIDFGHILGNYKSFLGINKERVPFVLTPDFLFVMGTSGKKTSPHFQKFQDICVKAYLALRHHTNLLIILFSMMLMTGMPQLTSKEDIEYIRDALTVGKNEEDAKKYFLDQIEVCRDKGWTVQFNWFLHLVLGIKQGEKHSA
Method: as §1, §2
(§4) Each test sample was transferred to a 384 well low flange white flat bottom microplate (#3572, Corning Life Sciences, Lowell, Mass., USA) by using a multi 8-channel (Pipetman Neo multi 8×20, Gilson, Middleton, Wis., USA) to make a final phosphorylation reaction volume of 20 μl per each well. For the negative control, 5 μl of 14.4% DMSO and 10 μl of PIP2 substration solution were used, and 5 μl of 14.4% DMSO and 10 μl of PIP2/PI3Kγ mixed solution were used as the positive control. For the test group, 5 μl of a solution prepared by dissolving the compound obtained in Example in DMSO and 10 μl of PIP2/PI3Kγ mixed solution were used. Before the initiation of the phosphorylation reaction, sample compounds were pretreated with the enzyme for approximately 10 minutes, and then the phosphorylation reaction was induced by adding 5 μl of ATP. Since each of the test compound and ATP takes up 25% of the total volume, and PIP2 and PI3Kγ take up 50% of the total volume during the reaction, each solution was concentrated 4 and 2 times, respectively, before mixing the solutions. Subsequently, the test sample was gently shook for 3 minutes and subjected to a phosphorylation reaction for 90 minutes at room temperature, which was then added with 5 μl of the stop solution to terminate the phosphorylation reaction. In order to induce a time-resolved fluorescence reaction, 5 μl of the fluorescence detection solution was added to the sample. The fluorescence detection solution contains biotin-phosphatidylinositol 3,4,5-triphosphate (PIP3), streptavidin-labeled Allopycocyanin (APC) and europium-labeled Pleckstrin homology domain (the PIP3 binds to PH domain), and the time-resolved fluorescence reaction is induced by a series of reaction of PH domain and PIP3, and biotin and streptavidin. The sample was left to stand for 6 hours at room temperature, and the time-resolved fluorescence resonance energy transfer (TR-FRET) rate was measured (emission wavelength: 665 nm, 620 nm, excitation wavelength: 340 nm) by using a Flexstation3 Micro plate reader (Molecular Devices, USA). TR-FRET Rate and TR-Inhibition Rate were calculated based on Equations 1 and 2 below, and the results are expressed in IC50, which is the concentration of a compound that inhibits 50% of PI3Kγ activity in vitro. TR-FRET Rate=(665 nm emission wavelength/620 nm emission wavelength)×10000 <Equation 1> TR-FRET Inhibition Rate=[(TR-FRET Rate of Sample−TR-FRET Rate of Negative Control)/(TR-FRET Rate of Positive Control−TR-FRET Rate of Negative Control)]×100 <Equation 2>

[3] = target: PI3K β (p110β/p85α)(h) (Homo sapiens, UniProt P42338); assay: Assay for phosphatidylinositol 3-kinase beta (PI3Kβ) activity, PI3K-HTRF kit; details: TR-FRET; enzyme 0.725 μg/ml, 10 μM PIP2, 10 μM ATP
Sequence of PI3K β (p110β/p85α)(h) (P42338 whole entry): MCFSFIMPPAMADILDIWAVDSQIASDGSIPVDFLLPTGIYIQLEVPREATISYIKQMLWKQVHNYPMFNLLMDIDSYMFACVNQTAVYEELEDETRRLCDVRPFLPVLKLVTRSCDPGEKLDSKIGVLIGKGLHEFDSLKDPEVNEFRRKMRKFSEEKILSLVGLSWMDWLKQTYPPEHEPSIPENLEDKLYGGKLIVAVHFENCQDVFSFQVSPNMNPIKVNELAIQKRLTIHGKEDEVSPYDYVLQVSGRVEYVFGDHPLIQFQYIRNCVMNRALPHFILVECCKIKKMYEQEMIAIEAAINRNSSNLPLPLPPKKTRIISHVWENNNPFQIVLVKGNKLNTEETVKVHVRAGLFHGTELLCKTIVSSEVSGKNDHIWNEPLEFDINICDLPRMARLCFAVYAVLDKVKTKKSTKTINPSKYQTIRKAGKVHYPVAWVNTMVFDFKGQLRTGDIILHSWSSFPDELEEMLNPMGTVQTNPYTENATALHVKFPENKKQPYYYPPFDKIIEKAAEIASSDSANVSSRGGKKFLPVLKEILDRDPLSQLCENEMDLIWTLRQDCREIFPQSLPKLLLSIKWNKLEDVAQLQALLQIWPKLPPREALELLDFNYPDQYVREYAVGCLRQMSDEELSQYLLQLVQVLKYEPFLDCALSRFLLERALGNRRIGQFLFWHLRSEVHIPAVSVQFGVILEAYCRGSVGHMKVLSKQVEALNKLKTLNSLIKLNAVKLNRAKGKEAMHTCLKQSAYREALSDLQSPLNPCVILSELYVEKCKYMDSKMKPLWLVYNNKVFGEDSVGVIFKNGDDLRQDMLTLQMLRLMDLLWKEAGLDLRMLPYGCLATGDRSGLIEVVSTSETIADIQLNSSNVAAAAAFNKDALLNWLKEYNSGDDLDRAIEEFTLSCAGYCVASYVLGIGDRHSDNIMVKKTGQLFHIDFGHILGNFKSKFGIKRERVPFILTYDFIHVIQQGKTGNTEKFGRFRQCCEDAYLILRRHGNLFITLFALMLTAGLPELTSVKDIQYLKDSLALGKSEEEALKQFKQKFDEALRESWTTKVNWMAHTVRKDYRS
Sequence of PI3K β (p110β/p85α)(h) (P27986 whole entry partner): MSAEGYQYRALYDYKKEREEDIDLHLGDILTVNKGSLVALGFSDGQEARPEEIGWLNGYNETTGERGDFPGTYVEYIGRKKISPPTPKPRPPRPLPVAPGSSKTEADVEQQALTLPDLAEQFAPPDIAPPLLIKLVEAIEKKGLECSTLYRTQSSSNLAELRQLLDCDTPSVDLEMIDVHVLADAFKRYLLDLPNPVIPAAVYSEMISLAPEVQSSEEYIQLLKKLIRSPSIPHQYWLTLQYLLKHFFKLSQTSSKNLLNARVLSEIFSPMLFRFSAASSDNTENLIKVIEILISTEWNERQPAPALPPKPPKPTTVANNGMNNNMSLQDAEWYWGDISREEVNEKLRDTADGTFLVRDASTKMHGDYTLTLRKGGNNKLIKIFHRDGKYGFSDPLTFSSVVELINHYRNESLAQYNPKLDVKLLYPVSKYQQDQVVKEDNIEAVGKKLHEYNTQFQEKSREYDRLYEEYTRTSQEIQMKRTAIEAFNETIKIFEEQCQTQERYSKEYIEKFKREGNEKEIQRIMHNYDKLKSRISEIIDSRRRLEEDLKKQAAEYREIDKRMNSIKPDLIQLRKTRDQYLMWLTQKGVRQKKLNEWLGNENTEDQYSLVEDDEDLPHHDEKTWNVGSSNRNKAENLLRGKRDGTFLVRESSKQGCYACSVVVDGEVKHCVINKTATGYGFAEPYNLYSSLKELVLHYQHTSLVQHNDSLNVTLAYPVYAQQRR
Method: [The source words this procedure for another target and says it was used here with some conditions changed.] as §1, §2, §3

[4] = target: PI3Kα (p110α/p85α)(h) (Homo sapiens, UniProt P42336); assay: Assay for phosphatidylinositol 3-kinase alpha (PI3Kα) activity, PI3K-HTRF kit; details: TR-FRET; enzyme 0.3625 μg/ml, 10 μM PIP2, 10 μM ATP
Sequence of PI3Kα (p110α/p85α)(h) (P42336 whole entry): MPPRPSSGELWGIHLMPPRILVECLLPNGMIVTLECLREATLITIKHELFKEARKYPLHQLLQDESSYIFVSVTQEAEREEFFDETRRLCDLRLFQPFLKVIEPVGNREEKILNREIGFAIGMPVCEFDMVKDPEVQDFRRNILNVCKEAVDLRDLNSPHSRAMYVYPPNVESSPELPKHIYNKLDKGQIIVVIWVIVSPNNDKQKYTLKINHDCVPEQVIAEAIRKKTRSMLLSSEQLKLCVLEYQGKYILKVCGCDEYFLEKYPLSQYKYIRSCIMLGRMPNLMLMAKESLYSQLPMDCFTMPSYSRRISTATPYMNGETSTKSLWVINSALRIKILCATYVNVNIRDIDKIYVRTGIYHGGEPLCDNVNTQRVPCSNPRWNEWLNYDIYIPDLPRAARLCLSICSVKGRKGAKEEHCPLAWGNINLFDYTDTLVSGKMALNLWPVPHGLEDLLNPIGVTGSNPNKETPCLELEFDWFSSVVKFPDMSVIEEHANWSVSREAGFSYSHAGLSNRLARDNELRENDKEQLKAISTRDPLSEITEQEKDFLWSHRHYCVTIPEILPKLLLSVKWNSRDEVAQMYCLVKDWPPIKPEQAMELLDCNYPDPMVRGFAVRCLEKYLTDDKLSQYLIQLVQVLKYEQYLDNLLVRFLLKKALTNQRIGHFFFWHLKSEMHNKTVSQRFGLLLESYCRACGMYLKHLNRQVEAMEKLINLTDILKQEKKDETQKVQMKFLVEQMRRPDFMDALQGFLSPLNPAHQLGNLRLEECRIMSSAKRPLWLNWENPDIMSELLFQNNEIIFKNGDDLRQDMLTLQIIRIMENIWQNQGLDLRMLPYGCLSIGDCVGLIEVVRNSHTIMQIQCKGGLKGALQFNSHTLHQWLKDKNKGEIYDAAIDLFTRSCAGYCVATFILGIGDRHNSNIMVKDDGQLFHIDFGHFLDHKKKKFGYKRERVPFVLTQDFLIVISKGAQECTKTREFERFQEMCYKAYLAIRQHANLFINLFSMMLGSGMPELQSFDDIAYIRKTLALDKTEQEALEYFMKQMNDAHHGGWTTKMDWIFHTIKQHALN
Sequence of PI3Kα (p110α/p85α)(h) (P27986 whole entry partner): as the sequence (P27986 whole entry partner) above
Method: [The source words this procedure for another target and says it was used here with some conditions changed.] as §1, §2, §4

Sequence of PI3Kδ (p110δ/p85α)(h) (O00329 whole entry): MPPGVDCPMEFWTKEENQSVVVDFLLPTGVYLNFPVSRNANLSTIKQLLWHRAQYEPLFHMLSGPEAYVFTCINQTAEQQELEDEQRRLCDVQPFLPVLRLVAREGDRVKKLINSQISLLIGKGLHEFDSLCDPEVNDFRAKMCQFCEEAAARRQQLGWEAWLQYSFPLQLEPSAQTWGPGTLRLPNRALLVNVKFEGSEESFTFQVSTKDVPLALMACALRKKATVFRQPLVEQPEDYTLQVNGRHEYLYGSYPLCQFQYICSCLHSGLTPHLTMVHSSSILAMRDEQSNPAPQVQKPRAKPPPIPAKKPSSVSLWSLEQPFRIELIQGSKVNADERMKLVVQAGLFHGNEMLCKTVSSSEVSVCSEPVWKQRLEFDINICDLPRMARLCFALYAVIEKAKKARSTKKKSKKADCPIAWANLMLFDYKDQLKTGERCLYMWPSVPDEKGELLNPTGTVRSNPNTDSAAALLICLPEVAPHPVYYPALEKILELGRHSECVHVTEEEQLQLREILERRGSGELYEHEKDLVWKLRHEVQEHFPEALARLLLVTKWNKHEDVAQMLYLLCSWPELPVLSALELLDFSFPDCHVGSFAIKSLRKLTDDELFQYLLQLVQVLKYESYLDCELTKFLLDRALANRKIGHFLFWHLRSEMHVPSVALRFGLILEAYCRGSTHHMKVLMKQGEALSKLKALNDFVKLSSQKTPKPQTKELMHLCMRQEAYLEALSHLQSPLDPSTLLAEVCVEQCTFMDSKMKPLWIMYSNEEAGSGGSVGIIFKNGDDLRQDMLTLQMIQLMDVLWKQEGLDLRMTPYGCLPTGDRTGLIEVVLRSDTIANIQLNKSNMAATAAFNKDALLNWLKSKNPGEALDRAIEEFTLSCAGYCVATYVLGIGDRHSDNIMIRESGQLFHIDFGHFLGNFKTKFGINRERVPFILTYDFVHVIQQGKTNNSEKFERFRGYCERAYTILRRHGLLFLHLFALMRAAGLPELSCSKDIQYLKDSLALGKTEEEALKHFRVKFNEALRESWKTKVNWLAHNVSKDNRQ
Sequence of PI3Kδ (p110δ/p85α)(h) (P27986 whole entry partner): as the sequence (P27986 whole entry partner) above

| SMILES | IC50 [1] [nM] | IC50 [2] [nM] | IC50 [3] [nM] | IC50 [4] [nM] |
| --- | --- | --- | --- | --- |
| COc1ccc(C#Cc2cncc3cc(/C=C4\SC(=S)NC4=O)oc23)cc1OC [Example 512, (Z)-5-([7-{(3,4-Dimethoxyphenyl)ethynyl}furo[3,2-c]pyridin-2-yl]methylene)-2-thioxothiazolidin-4-one] | 73 | 17 | 82 | 2 |
| Cc1cc(-c2cncc3cc(/C=C4\SC(=S)NC4=O)oc23)cnc1F [Example 195, (Z)-5-[7-(6-Fluoro-5-methylpyridin-3-yl)-furo[3,2-c]pyridin-2-ylmethylene]-2-thioxothiazolidin-4-one] | 1900 | 3 | 156 | 2 |
| COc1ccc(NC(=O)c2cncc3cc(/C=C4\SC(=S)NC4=O)oc23)cc1 [Example 425, (Z)—N-(4-Methoxyphenyl)-2-{(4-oxo-2-thioxothiazolidin-5-ylidene)methyl}furo[3,2-c]pyridine-7-carboxamide] | 8330 | 51 | 1140 | 11 |
| N#Cc1ccc(C#Cc2cncc3cc(/C=C4\SC(=S)NC4=O)oc23)cc1 [Example 548, (Z)-4-([2-{(4-Oxo-2-thioxothiazolidin-5-ylidene)methyl}furo[3,2-c]pyridin-7-yl]ethynyl)benzonitrile] | 250 | 25 | 138 | 8 |
| COc1c(C)cc(-c2cncc3cc(/C=C4\SC(=O)NC4=O)oc23)cc1C [Example 73, (Z)-5-[{7-(4-Methoxy-3,5-dimethylphenyl)furo[3,2-c]pyridin-2-yl}methylene]thiazolidine-2,4-dione] | > 10000 | 10 | > 10000 | 10 |
| CN(C)S(=O)(=O)c1ccc(-c2cncc3cc(/C=C4\SC(=O)NC4=O)oc23)cc1F [Example 280, (Z)-4-[2-{(2,4-Dioxothiazolidin-5-ylidene)methyl}furo[3,2-c]pyridin-7-yl]-2-fluoro-N,N-dimethylbenzenesulfonamide] | 3000 | 22 | 1110 | 46 |
| Cc1cc(-c2cncc3cc(/C=C4\SC(=S)NC4=O)oc23)cc(C)c1OC(C)C [Example 197, (Z)-5-[{7-(4-Isopropoxy-3,5-dimethylphenyl)furo[3,2-c]pyridin-2-yl}methylene]-2-thioxothiazolidin-4-one] | > 10000 | 5 | > 10000 | 121 |
| CSc1ccc(-c2cncc3cc(/C=C4\SC(=O)NC4=O)oc23)cn1 [Example 41, (Z)-5-([7-{6-(Methylthio)pyridin-3-yl}furo[3,2-c]pyridin-2-yl]methylene)thiazolidine-2,4-dione] | 322 | 13 | 100 | 12 |

Other lines, results leading:

| IC50 [1] [nM] | IC50 [2] [nM] | IC50 [3] [nM] | IC50 [4] [nM] | SMILES |
| --- | --- | --- | --- | --- |
| 120 | 18 | 3470 | 5 | O=C1NC(=S)S/C1=C\c1cc2cncc(C#Cc3ccsc3)c2o1 [Example 555, (Z)-5-[{7-(Thiophen-3-ylethynyl)furo[3,2-c]pyridin-2-yl}methylene]-2-thioxothiazolidin-4-one] |
| 149 | 29 | > 10000 | 6 | O=C1NC(=O)/C(=C/c2cc3cncc(-c4cc5ccccc5s4)c3o2)S1 [Example 14, (Z)-5-[{7-(Benzo[b]thiophen-2-yl)furo[3,2-c]pyridin-2-yl}methylene]thiazolidine-2,4-dione] |
| > 10000 | 9 | > 10000 | 8 | COc1ccc(C#Cc2cncc3cc(/C=C4\SC(=O)NC4=O)oc23)cc1 [Example 437, (Z)-5-([7-{(4-Methoxyphenyl)ethynyl}furo[3,2-c]pyridin-2-yl]methylene)thiazolidine-2,4-dione] |
| 136 | 27 | 104 | 5 | O=C1NC(=O)/C(=C/c2cc3cncc(C#Cc4ccc(Cl)cc4)c3o2)S1 [Example 541, (Z)-5-([7-{(4-Chlorophenyl)ethynyl}furo[3,2-c]pyridin-2-yl]methylene)thiazolidine-2,4-dione] |
| 74 | 11 | 715 | 4 | N#Cc1ccccc1C#Cc1cncc2cc(/C=C3\SC(=S)NC3=O)oc12 [Example 513, (Z)-2-([2-{(4-Oxo-2-thioxothiazolidin-5-ylidene)methyl}furo[3,2-c]pyridin-7-yl]ethynyl)benzonitrile] |
| 747 | 17 | 480 | 40 | CNS(=O)(=O)c1ccc(-c2cncc3cc(/C=C4\SC(=O)NC4=O)oc23)cc1F [Example 279, (Z)-4-[2-{(2,4-Dioxothiazolidin-5-ylidene)methyl}furo[3,2-c]pyridin-7-yl]-2-fluoro-N-methylbenzenesulfonamide] |
| 78 | 15 | 2410 | 1 | CN(C)S(=O)(=O)c1ccc(C#Cc2cncc3cc(/C=C4\SC(=S)NC4=O)oc23)cc1 [Example 571, (Z)—N,N-Dimethyl-4-([2-{(4-oxo-2-thioxothiazolidin-5-ylidene)methyl}furo[3,2-c]pyridin-7-yl]ethynyl)benzenesulfonamide] |
